Results from patent US7972800B2, “Screening method for binding property or signal transduction alterations” (Takeda Pharmaceutical Company Limited, priority 2003, dated 2011).

Experiments:
[1] = system: GPR39-expressed UM-UC-3 cells; experiment: IL-8 secretion from GPR39-expressed UM-UC-3 cells, quantified by EIA; type: cell-based, human; conditions: 1 mM copper chloride, 12 hours incubation, culture supernatant
Protocol: Using GPR39-expressed UM-UC-3 cells, the effects of adding metal ions as the agonist for GPR39 were examined.
After washing with PBS, the cells were scraped off using trypsin and centrifuged for recovery. […] Next, the suspension was dispensed in a 6-well plate (Falcon) at 5 ml each per well, followed by incubation overnight in a CO2 incubator.
Then, 5 ml each was added to each well, followed by incubation at 37° C. in a CO2 incubator for […]. […] After the culture supernatant was recovered, IL-8 contained in the samples was quantified by EIA (Amersham).

human GPR39 = target: T1, human GPR39 (Homo sapiens, UniProt O43194); conditions: Cytosensor, CHO/hGPR39 (FIG. 8)
T1 sequence (O43194 1-453): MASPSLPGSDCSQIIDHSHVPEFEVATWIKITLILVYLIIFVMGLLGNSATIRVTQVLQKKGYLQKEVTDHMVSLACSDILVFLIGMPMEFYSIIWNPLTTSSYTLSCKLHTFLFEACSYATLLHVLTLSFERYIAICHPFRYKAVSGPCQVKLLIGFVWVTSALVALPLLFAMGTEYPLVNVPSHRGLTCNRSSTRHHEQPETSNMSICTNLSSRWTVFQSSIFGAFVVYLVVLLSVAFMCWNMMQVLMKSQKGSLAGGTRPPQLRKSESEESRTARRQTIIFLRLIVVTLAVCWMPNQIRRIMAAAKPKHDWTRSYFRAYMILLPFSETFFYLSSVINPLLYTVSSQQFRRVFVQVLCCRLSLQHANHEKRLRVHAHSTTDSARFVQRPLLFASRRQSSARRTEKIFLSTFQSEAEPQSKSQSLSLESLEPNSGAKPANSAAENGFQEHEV
Protocol: (§1) Activation of the intracellular signal transduction system by ligands using a Cytosensor was determined in terms of the pH changes by metabolism of cells as an indicator.
(§2) The procedures were as follows. On the previous day, the human GPR39-expressing CHO cell line was cultured in a culture flask to reach a confluent state. After washing with PBS (Invitrogen Corp.), the cells were scraped off using trypsin (Invitrogen Corp.) and centrifuged for recovery. The cells were then suspended in medium and the suspension was adjusted to 3×10^5 cells/ml. The capsule of Cytosensor capsule kit (Molecular Device) was placed on a 12-well plate (Costar) and 1 ml of the cell suspension was charged therein. After covering with the lid, the cells were incubated at 37° C. in an incubator until next day. On the day when the assay was conducted, Cytosensor was activated as instructed by the protocol. Then, RPMI1640 medium (pH 7.4) (Invitrogen Corp.) for Cytosensor was prepared and equilibrated. The spacer was then placed in the capsule where the cells prepared on the previous day were seeded, and the capsule was set on Cytosensor. After equilibration with the medium, a sample was added to the cells by switching the flow path and pH changes were determined.

[2] = system: mock cells where GPR39 was not expressed; conditions: Cytosensor, mock cells where GPR39 was not expressed (FIG. 8)
Protocol: as §1, §2

TGR7 = TGR7 (Homo sapiens, UniProt Q8TDS7); conditions: Cytosensor, TGR7-expressed cells (FIG. 8)
TGR7, sequence (Q8TDS7 whole entry): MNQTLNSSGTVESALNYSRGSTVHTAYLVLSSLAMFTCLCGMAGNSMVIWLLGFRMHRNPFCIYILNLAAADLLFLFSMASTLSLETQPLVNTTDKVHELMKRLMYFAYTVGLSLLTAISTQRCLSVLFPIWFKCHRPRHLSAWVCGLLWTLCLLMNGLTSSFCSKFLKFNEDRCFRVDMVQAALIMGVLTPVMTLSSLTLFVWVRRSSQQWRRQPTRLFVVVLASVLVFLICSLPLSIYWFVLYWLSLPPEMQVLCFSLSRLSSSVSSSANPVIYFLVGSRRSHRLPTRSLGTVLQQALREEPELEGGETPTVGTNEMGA
Protocol: as §1, §2

UM-UC-3 = conditions: FLIPR
Protocol: (§3) On the day when the assay was conducted, various test samples were added to the cells and the changes of intracellular calcium levels in this case were determined by FLIPR (Molecular Device). In order to determine the changes in intracellular calcium levels on FLIPR, the cells were pre-treated by the following procedures. First, for the purpose of adding a fluorescent dye Fluo-3AM (DOJIN) to the cells or washing the cells immediately before the FLIPR assay, an assay buffer was prepared. A solution was prepared by adding 20 ml of 1M HEPES (pH 7.4) (DOJIN) to 1000 ml of HBSS (Invitrogen Corp.) (hereinafter HBSS/HEPES solution), to which solution was added 10 ml of a solution mixture obtained by dissolving 710 mg of Probenecid (Sigma) in 5 ml of 1N NaOH and further adding 5 ml of HBSS/HEPES solution thereto. The resulting solution was used as the assay buffer. Next, 50 μg of Fluo-3AM was dissolved in 21 μl of DMSO (DOJIN) and an equal volume of 20% Pluronic acid (Molecular Probes) was added to and mixed with the solution. The mixture was then added to 10.6 ml of the assay buffer supplemented with 105 μl of fetal calf serum to prepare a fluorescent dye solution. The medium for the CHO cells where human GPR39 was stably expressed was removed. […] Following the pre-treatment above, the changes in intracellular calcium levels after the addition of each test sample were determined by FLIPR. […]

HT-1197 = conditions: FLIPR
Protocol: as §3

With `[Cl][Cu][Cl]` [copper chloride] as the molecule, how does the “amount of IL-8 accumulated relative to absence of copper chloride” value [1] read?
Its value is “approximately twice”.

Which results are given for `[Cl][Ni][Cl]` [nickel chloride]?
cell response (pH change, acidification rate) in GPR39-expressed cells (human GPR39): a cell response specific to nickel was detected; cell response (pH change) in mock cells [2]: any response was not detected; cell response (pH change) in other receptor TGR7 cells (TGR7): any response was not detected; reaction (change in intracellular calcium levels) in UM-UC-3 (UM-UC-3): a reaction with nickel was detected; reaction (change in intracellular calcium levels) in HT-1197 (HT-1197): a reaction with nickel was detected
